From US9629828B2, “Methods of treating traveler's diarrhea and hepatic encephalopathy” (priority 2008, dated 2017)

How the values were obtained:
[1] = tested on: patients with HE; type: in vivo, human
Text: Total number of hospitalizations, duration of hospitalizations, HE endpoints, and cost of therapy were compared between the 2 treatment regimens.

[2] = tested on: liver transplant patients who presented with HE; assay: Chart review of 39 liver transplant patients with HE; type: in vivo, human
[3] = male, human, in vivo
[4] = tested on: patients with HE; settings: rifaximin 1200 mg/day, neomycin 3 g/day; cited from earlier work

Molecule: OC[C@H]1O[C@@H](O[C@@H]2[C@@H](CO)OC(O)(CO)[C@H]2O)[C@H](O)[C@@H](O)[C@H]1O (mixture of isomers) [lactulose]
- patients with Conn scores of 3 or 4 ([1]; end of treatment period): 25%
- days hospitalized ([1]; human, in vivo): 7.3 days
- patients with asterixis at end of treatment period ([1]; human, in vivo): 93%
- patients with diarrhea, flatulence, and abdominal pain ([1]; human, in vivo): significantly more patients
- hospitalizations ([1]; rifaximin 400 mg 3 times/day, lactulose 30 mL twice daily): 1.6
- hospitalizations reported ([2]; 15 rifaximin, 24 lactulose patients): Nineteen
- average length of stay ([2]; human, in vivo): 5.0 days

Molecule: CO[C@H]1/C=C/O[C@@]2(C)Oc3c(C)c(O)c4c(O)c(c5c(nc6cc(C)ccn65)c4c3C2=O)NC(=O)/C(C)=C\C=C\[C@H](C)[C@H](O)[C@@H](C)[C@@H](O)[C@@H](C)[C@H](OC(C)=O)[C@@H]1C [14C-Rifaximin]
- amount of radioactivity in urine (bound) [3]: < 0.4 % of the dose

Molecule: neomycin
- efficacy in patients with HE [4]: comparable efficacy
